{
  "source": "patent US12071626B2",
  "about": "“Splice-switching oligonucleotides and methods of use” (priority 2015, dated 2024)",
  "type_in_all_cases": "cell-based, human",
  "key": {"EGFR pre-mRNA [1]": {"test_system": "EGFR pre-mRNA", "experiment": "RT-PCR (endpoint, gel) of EGFR exon 16 / exon 18 skipping in LNCaP cells", "details": "increasing concentrations of SSO vs transfection reagent alone, RNA 72 hrs after transfection", "protocol": "(§1) LNCaP cells were treated with transfection reagent alone or with increasing concentrations of exon 16 (left) or exon 18 (right) SSO. RNA was harvested 72 hrs after transfection. Targets were visualized by RT-PCR using primers located in the exons flanking the target exon, as depicted above the gel images. Products were confirmed by sequencing.\nas §1, with “(SSO #1, left in FIG. 8)” for “(left)”, “(SSO #2, right in FIG. 8).” for “(right) SSO.”, “hours” for “hrs”, “images in FIG. 8.” for “images.”, “sequencing. The primers used were: […]” for “sequencing.”"}, "EGFR pre-mRNA [2]": {"test_system": "EGFR pre-mRNA", "experiment": "qPCR quantitation of EGFR exon 16 / exon 18 skipped products", "details": "increasing concentrations of SSO", "source_text": "qPCR primers correspond to those used in FIG. 10 and endpoint PCR primers correspond to those used in FIG. 8."}, "pEGFR": {"test_system": "pEGFR", "experiment": "pEGFR Western blot in LNCaP cells after EGF exposure", "details": "250 nM SSO, 72 hrs post transfection, 10 ng/ml EGF for 10 minutes, normalized to GAPDH and vehicle control", "protocol": "(§2) LNCaP cells were treated with transfection reagent alone or with 250 nM EGRF exon 16 or 18 SSOs. 72 hrs post transfection, cells were exposed to 10 ng/ml EGF for 10 minutes before lysing and haresting total protein. pEGFR and GAPDH were visualized via Western blot and imaged and quantified on a Licor Odyssey Fc. pEGFR quantities are normalized to GAPDH and then to vehicle control.\nas §2, with “EGFR” for “EGRF”, “hours” for “hrs”, “ng/mL” for “ng/ml”, “harvesting” for “haresting”, “via” for “via Western blot and imaged and quantified on a Licor”"}, "AR-V7 RNA": {"test_system": "AR-V7 RNA", "experiment": "AR-V7 RNA by QRT-PCR in prostate cancer cells transfected with SSO", "details": "RNA 72 hours after transfection, normalized to TBP", "protocol": "(§3) LN95, VCaP, 22Rv1 and MDA PCa 2b cells were treated with control scrambled SSO or with increasing concentrations of AR-V7 SSO, as indicated. RNA was harvested 72 hours after transfection for cDNA production and QRT-PCR analysis. Ct values were normalized to TBP, TATA-binding protein, in each sample and used to generate relative expression values.\nas §3, with “MDA” for “LN95, VCaP, 22Rv1 and MDA”, “transfection reagent alone” for “control scrambled SSO”, “AR45” for “AR-V7”"}, "AR-V7 protein": {"test_system": "AR-V7 protein", "experiment": "AR-V7 protein in LN95 prostate cancer cells transfected with SSO", "details": "increasing concentrations of SSO"}, "[3]": {"test_system": "MDA PCa 2b prostate cancer cells", "experiment": "Colony forming ability of MDA PCa 2b prostate cancer cells", "details": "MDA PCa 2b cells"}, "[4]": {"test_system": "LN95 prostate cancer cells", "experiment": "Proliferation of LN95 prostate cancer cells"}, "AR45": {"test_system": "AR45", "experiment": "AR45 RNA by QRT-PCR in MDA PCa 2b cells transfected with SSO", "details": "increasing concentrations of SSO vs transfection reagent alone, RNA 72 hours after transfection, normalized to TBP", "protocol": "as §3, with “MDA” for “LN95, VCaP, 22Rv1 and MDA”, “transfection reagent alone” for “control scrambled SSO”, “AR45” for “AR-V7”"}, "wild type AR": {"test_system": "wild type AR", "experiment": "Wild type (full-length) AR RNA by QRT-PCR in MDA PCa 2b cells transfected with SSO", "details": "increasing concentrations of SSO vs transfection reagent alone, RNA 72 hours after transfection, normalized to TBP", "protocol": "as §3, with “MDA” for “LN95, VCaP, 22Rv1 and MDA”, “transfection reagent alone” for “control scrambled SSO”, “AR45” for “AR-V7”"}, "AR signaling": {"test_system": "AR signaling", "experiment": "AR signaling: QRT-PCR of known AR induced and AR repressed targets in MDA PCa 2b cells", "details": "400 nM SSO vs transfection reagent alone, RNA 72 hours after transfection", "protocol": "MDA Pca 2b cells were treated with transfection reagent alone or with 400 nM AR45 SSO. RNA was harvested 72 hours after transfection for cDNA production and QRT-PCR analysis (Light green=known AR induced targets, dark green=known AR repressed targets)."}},
  "note": "“Also recorded” adds a separate entry of the source. In the oligonucleotide strings, read from the 5' end, every base follows the letter of its sugar. An asterisk marks phosphorothioate; unmarked linkages are phosphodiester. Other units and linkages are bracketed, terminal groups are in braces. A string of capitals states the bases alone. m = 2'-O-methyl",
  "data": [
    {"substance": "mC*mC*mA*mG*mG*mG*mA*mC*mC*mU*mU*mA*mC*mC*mU*mU*mA*mU [EGFR exon 18 SSO]", "values": [
      {"measurement": "production of dominant-negative EGFR variants (exon skipping, RT-PCR gel)", "setting": "EGFR pre-mRNA [1]", "value": "drive production of dominant-negative EGFR variants in a dose-dependent manner"},
      {"measurement": "production of dominant-negative EGFR variants (quantitated, qPCR of skipped product)", "setting": "EGFR pre-mRNA [2]", "value": "drive production of dominant-negative EGFR variants in a dose-dependent manner"},
      {"measurement": "pEGFR protein expression", "setting": "pEGFR", "value": "block pEGFR protein expression"},
      {"measurement": "pEGFR protein expression", "setting": "pEGFR; listed as EGRF exon 18 SSO", "value": "inhibition of pEGFR expression"}
    ]},
    {"substance": "mG*mC*mC*mA*mA*mC*mC*mC*mG*mG*mA*mA*mU*mU*mU*mU*mU*mC [AR-V7 SSO]", "values": [
      {"measurement": "AR-V7 RNA relative expression", "setting": "AR-V7 RNA; 22Rv1 cells, vs control scrambled SSO", "value": "inhibiting AR-V7 RNA; also recorded: Dose-dependent inhibition of AR-V7"},
      {"measurement": "AR-V7 RNA relative expression", "setting": "AR-V7 RNA; LN95 cells, increasing concentrations of SSO vs control scrambled SSO", "value": "inhibiting AR-V7 RNA (left) and protein (right) in a dose-dependent manner; also recorded: Dose-dependent inhibition of AR-V7"},
      {"measurement": "AR-V7 RNA relative expression", "setting": "AR-V7 RNA; MDA PCa 2b cells, vs control scrambled SSO", "value": "inhibiting AR-V7 RNA; also recorded: Dose-dependent inhibition of AR-V7"},
      {"measurement": "AR-V7 RNA relative expression", "setting": "AR-V7 RNA; VCaP cells, vs control scrambled SSO", "value": "inhibiting AR-V7 RNA; also recorded: Dose-dependent inhibition of AR-V7"},
      {"measurement": "AR-V7 protein", "setting": "AR-V7 protein", "value": "inhibiting AR-V7 RNA (left) and protein (right) in a dose-dependent manner"},
      {"measurement": "colony forming ability", "setting": "[3]", "value": "inhibiting colony forming ability"},
      {"measurement": "proliferation", "setting": "[4]", "value": "inhibiting proliferation"},
      {"measurement": "proliferation in the presence of enzalutamide", "setting": "[4]; in the presence of enzalutmide", "value": "inhibiting proliferation"}
    ]},
    {"substance": "mG*mC*mU*mG*mU*mG*mA*mA*mC*mA*mC*mU*mU*mA*mC*mC*mC*mA [EGFR exon 16 SSO]", "values": [
      {"measurement": "production of dominant-negative EGFR variants (exon skipping, RT-PCR gel)", "setting": "EGFR pre-mRNA [1]", "value": "drive production of dominant-negative EGFR variants in a dose-dependent manner"},
      {"measurement": "production of dominant-negative EGFR variants (quantitated, qPCR of skipped product)", "setting": "EGFR pre-mRNA [2]", "value": "drive production of dominant-negative EGFR variants in a dose-dependent manner"},
      {"measurement": "pEGFR protein expression", "setting": "pEGFR", "value": "block pEGFR protein expression"},
      {"measurement": "pEGFR protein expression", "setting": "pEGFR; listed as EGRF exon 16 SSO", "value": "inhibition of pEGFR expression"}
    ]},
    {"substance": "mG*mG*mA*mA*mA*mA*mA*mC*mU*mU*mA*mC*mC*mG*mC*mA*mU*mG [AR45 SSO]", "values": [
      {"measurement": "expression of AR-V7 RNA", "setting": "AR-V7 RNA; MDA PCa 2b cells, increasing concentrations of SSO vs transfection reagent alone", "value": "decreasing wild type AR and AR-V7; also recorded: decreasing expression of full-length AR and the constitutively active AR variant, AR-V7"},
      {"measurement": "production of AR45 (RNA relative expression)", "setting": "AR45", "value": "drives production of the dominant-negative AR variant, AR45"},
      {"measurement": "expression of wild type (full-length) AR RNA", "setting": "wild type AR", "value": "decreasing wild type AR and AR-V7; also recorded: decreasing expression of full-length AR"},
      {"measurement": "AR signaling (RNAs of AR induced and AR repressed targets)", "setting": "AR signaling", "value": "modulating AR signaling; also recorded: Modulation of AR signaling"}
    ]}
  ]
}
